Literature values as cited in publication PMC11910062 (Drug Design, Development and Therapy, 2025).

Columns and labels:
[1] = CLEAR Outcomes study
[2] = ref submission materials for new drug application

Cmax ([2]; 180 mg dose of Nexletol): 19950 ng/mL
Compound: CC(C)(CCCCCC(O)CCCCCC(C)(C)C(=O)O)C(=O)O [Nexletol, bempedoic acid]
4 major adverse cardiovascular events (4-MACE) reduction compared with placebo group [1]: −13%
LDL-C reduction ([2]; 180 mg of Nexletol): 26%
